Data on 8 compounds can be found in patent US20220008372A1, “BACLOFEN FOR USE IN THE TOPICAL TREATMENT OF LOCALIZED MUSCULOSKELETAL PAIN” (ASSISTANCE PUBLIQUE - HOPITAUX DE PARIS, priority 2018, published 2022).

One assay has as its system patients with localized musculoskeletal pain. Briefly: Example 1: topical Baclofen cream in 19 patients, pain intensity on Visual Analogue Scale. The class given is in vivo, human. The following applies: patient, facioscapulohumeral muscular dystrophy, before applying topical baclofen. The method, then:
The cream was prepared with Baclofen powder mixed with a Pentravan® Base (Fagron) at a final concentration of 10% w/w.
The intensity of pain was rated using a Visual Analogue Scale (VAS) from 1 to 10.
In the case of `CN(C)CCC=C1c2ccccc2CCc2ccccc21` [amitriptyline], the “efficiency of earlier pain treatment” value was “poor efficiency”. Still for that read-out and setting: as for `NCC1(CC(=O)O)CCCCC1` [gabapentine], the entry is “poor efficiency”; as for `CC(C(=O)O)c1cccc(C(=O)c2ccccc2)c1` (stereo not drawn) [ketoprofene], “poor efficiency”.

For `CC(=O)Nc1ccc(O)cc1` [paracetamol], the “efficiency of earlier pain treatment” value was “poor efficiency”. With `COc1cccc(C2(O)CCCCC2CN(C)C)c1` (stereo not drawn) [tramadol], the “efficiency of earlier pain treatment” value was “poor efficiency”.

Another assay has the same test system. Description: Example III: case reports of 3 patients applying topical baclofen. In kind it is in vivo, human. The following applies: human, in vivo.
As to `COc1c(O[C@@H]2O[C@H](CO)[C@@H](O)[C@H](O)[C@H]2O)cc2c(c1OC)-c1ccc(SC)c(=O)cc1[C@@H](NC(C)=O)CC2` [Thiocolchicoside], the “efficiency of earlier pain treatment” value is reported as “poor efficiency”. Turning to `NCC(CC(=O)O)c1ccc(Cl)cc1` (stereo not drawn) [baclofen per os, β-(4-chlorophenyl)-γ-aminobutyric acid], the “efficiency of earlier pain treatment” value is on record as “poor efficiency”.

Staying with this assay, now noted: patient, Facioscapulohumeral muscular dystrophy, before topical baclofen.
`C=CC1CN2CCC1CC2C(O)c1ccnc2ccc(OC)cc12.O=C(O)c1ccccc1` (stereo not drawn) [Quinine benzoate]: the “efficiency of earlier pain treatment” value was “poor efficiency”.

Turning to `CN(C)CCC=C1c2ccccc2CCc2ccccc21` [amitriptyline], the “efficiency of earlier pain treatment” value is listed as “poor efficiency”.
